Results: ChEMBL document CHEMBL1201862, “PubChem BioAssay data set” (2004)
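Step 1: Grow cells in 96-well plates. Step 2: Expose to compound for 48 hours at 5 concentrations. Step 3: Interpolate endpoints linearly; if unreached, use highest concentration. The concentration for 50% growth inhibition is given as GI50.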 The source made the active and inactive calls. Rule as the data show it: active = GI50 up to about 1.1 µM and inactive = higher.

How the values were obtained:
Experiment in all cases: NCI tumour cell line growth inhibition, 48 h
[1] = tested on: 786-0
[2] = tested on: A549
[3] = tested on: ACHN
[4] = tested on: BT-549
[5] = tested on: CAKI-1
[6] = tested on: COLO 205
[7] = tested on: DU-145
[8] = tested on: EKVX
[9] = tested on: HCT-116
[10] = tested on: HCT-15
[11] = tested on: HL-60
[12] = tested on: HOP-62
[13] = tested on: HOP-92
[14] = tested on: HT-29
[15] = tested on: Hs-578T
[16] = tested on: IGROV-1
[17] = tested on: K562
[18] = tested on: KM12
[19] = tested on: LOX IMVI
[20] = tested on: M14
[21] = tested on: MCF7
[22] = tested on: MDA-MB-231
[23] = tested on: MDA-MB-435
[24] = tested on: MOLT-4
[25] = tested on: Malme-3M
[26] = tested on: NCI-H226
[27] = tested on: NCI-H23
[28] = tested on: NCI-H460
[29] = tested on: NCI-H522
[30] = tested on: NCI/ADR-RES
[31] = tested on: OVCAR-3
[32] = tested on: OVCAR-4
[33] = tested on: OVCAR-5
[34] = tested on: OVCAR-8
[35] = tested on: PC-3
[36] = tested on: RXF 393
[37] = tested on: SF-268
[38] = tested on: SF-295
[39] = tested on: SF-539
[40] = tested on: SK-MEL-28
[41] = tested on: SK-MEL-2
[42] = tested on: SK-MEL-5
[43] = tested on: SK-OV-3
[44] = tested on: SN12C
[45] = tested on: SNB-19
[46] = tested on: SNB-75
[47] = tested on: SR
[48] = tested on: SW-620
[49] = tested on: T47D
[50] = tested on: TK-10
[51] = tested on: U-251
[52] = tested on: UACC-257
[53] = tested on: UACC-62
[54] = tested on: UO-31
[55] = tested on: CCRF-CEM
[56] = tested on: HCC 2998

For `O=C(CSCC(=O)N/N=C\c1cccc(Br)c1)N/N=C\c1cccc(Br)c1`, which GI50 [1] is on record?
The GI50 was 19.1 µM (inactive).

What about the GI50 [2] of the same molecule?
The GI50 was 14.1 µM (inactive).

And the GI50 [3]?
The GI50 was 13.6 µM (inactive).

What about the GI50 [4] of the same molecule?
Its GI50 is 21.2 µM (inactive).

What about the GI50 [5] of the same molecule?
Its GI50 is 17.9 µM (inactive).

And the GI50 [6]?
The GI50 was 34 µM (inactive).

What about the GI50 [7] of the same molecule?
The GI50 was 21.8 µM (inactive).

What about the GI50 [8] of the same molecule?
Its GI50 is 27.1 µM (inactive).

And the GI50 [9]?
The GI50 was 14.8 µM (inactive).

And the GI50 [10]?
Its GI50 is 21.2 µM.

And the GI50 [11]?
The GI50 was 30.3 µM (inactive).

What about the GI50 [12] of the same molecule?
The GI50 was 17.4 µM (inactive).

What about the GI50 [13] of the same molecule?
Its GI50 is 18.9 µM (inactive).

And the GI50 [14]?
Its GI50 is 23.1 µM (inactive).

And the GI50 [15]?
The GI50 was 18.2 µM (inactive).

What about the GI50 [16] of the same molecule?
The GI50 was 17.1 µM (inactive).

And the GI50 [17]?
Its GI50 is 18.2 µM (inactive).

What about the GI50 [18] of the same molecule?
Its GI50 is 15 µM (inactive).

And the GI50 [19]?
Its GI50 is 10.8 µM (inactive).

What about the GI50 [20] of the same molecule?
Its GI50 is 20 µM (inactive).

What about the GI50 [21] of the same molecule?
Its GI50 is 33.1 µM (inactive).

What about the GI50 [22] of the same molecule?
The GI50 was 12.7 µM (inactive).

What about the GI50 [23] of the same molecule?
Its GI50 is 18.5 µM (inactive).

What about the GI50 [24] of the same molecule?
The GI50 was 21.3 µM (inactive).

And the GI50 [25]?
Its GI50 is 0.182 µM (active).

What about the GI50 [26] of the same molecule?
Its GI50 is 15.7 µM (inactive).

And the GI50 [27]?
Its GI50 is 14.6 µM (inactive).

What about the GI50 [28] of the same molecule?
The GI50 was 25.2 µM (inactive).

And the GI50 [29]?
Its GI50 is 17 µM (inactive).

And the GI50 [30]?
Its GI50 is 15.9 µM (inactive).

What about the GI50 [31] of the same molecule?
The GI50 was 13.4 µM (inactive).

What about the GI50 [32] of the same molecule?
Its GI50 is 20.1 µM (inactive).

What about the GI50 [33] of the same molecule?
The GI50 was 18.6 µM (inactive).

And the GI50 [34]?
The GI50 was 15.3 µM (inactive).

And the GI50 [35]?
The GI50 was 14.5 µM (inactive).

And the GI50 [36]?
Its GI50 is 20.3 µM (inactive).

What about the GI50 [37] of the same molecule?
The GI50 was 14.1 µM (inactive).

What about the GI50 [38] of the same molecule?
The GI50 was 14.9 µM (inactive).

And the GI50 [39]?
The GI50 was 23.6 µM (inactive).

And the GI50 [40]?
The GI50 was 18.8 µM (inactive).

What about the GI50 [41] of the same molecule?
Its GI50 is 22.9 µM (inactive).

And the GI50 [42]?
The GI50 was 19.1 µM (inactive).

What about the GI50 [43] of the same molecule?
Its GI50 is 20.1 µM (inactive).

What about the GI50 [44] of the same molecule?
Its GI50 is 16.2 µM (inactive).

What about the GI50 [45] of the same molecule?
The GI50 was 46.5 µM (inactive).

What about the GI50 [46] of the same molecule?
The GI50 was 18.1 µM (inactive).

And the GI50 [47]?
Its GI50 is 27.2 µM (inactive).

And the GI50 [48]?
The GI50 was 27.8 µM (inactive).

And the GI50 [49]?
The GI50 was 18.1 µM (inactive).

What about the GI50 [50] of the same molecule?
Its GI50 is 11.6 µM (inactive).

What about the GI50 [51] of the same molecule?
The GI50 was 15.1 µM (inactive).

And the GI50 [52]?
The GI50 was 14.1 µM (inactive).

What about the GI50 [53] of the same molecule?
Its GI50 is 14.7 µM (inactive).

What about the GI50 [54] of the same molecule?
The GI50 was 15.5 µM (inactive).

How did the GI50 [1] turn out when `CC(=O)C1C(=O)C(=O)N(c2ccc([N+](=O)[O-])cc2[N+](=O)[O-])C1=O` (stereo unspecified) was run?
The GI50 was > 100 µM (inactive).

And the GI50 [2]?
Its GI50 is > 100 µM (inactive).

And the GI50 [3]?
Its GI50 is > 100 µM (inactive).

What about the GI50 [4] of the same molecule?
The GI50 was > 100 µM (inactive).

And the GI50 [5]?
The GI50 was > 100 µM (inactive).

What about the GI50 [55] of the same molecule?
Its GI50 is > 100 µM (inactive).

And the GI50 [6]?
Its GI50 is > 100 µM (inactive).

What about the GI50 [7] of the same molecule?
The GI50 was > 100 µM (inactive).

What about the GI50 [8] of the same molecule?
Its GI50 is 56.5 µM (inactive).

And the GI50 [56]?
The GI50 was > 100 µM (inactive).

And the GI50 [9]?
The GI50 was > 100 µM (inactive).

And the GI50 [10]?
Its GI50 is greater than 100 µM.

What about the GI50 [11] of the same molecule?
Its GI50 is > 100 µM (inactive).

And the GI50 [12]?
Its GI50 is > 100 µM (inactive).

What about the GI50 [13] of the same molecule?
The GI50 was > 100 µM (inactive).

And the GI50 [14]?
The GI50 was > 100 µM (inactive).

What about the GI50 [15] of the same molecule?
Its GI50 is > 100 µM (inactive).

What about the GI50 [16] of the same molecule?
Its GI50 is > 100 µM (inactive).

And the GI50 [18]?
Its GI50 is > 100 µM (inactive).

And the GI50 [19]?
Its GI50 is > 100 µM (inactive).

And the GI50 [20]?
Its GI50 is > 100 µM (inactive).

What about the GI50 [21] of the same molecule?
The GI50 was > 100 µM (inactive).

And the GI50 [22]?
Its GI50 is > 100 µM (inactive).

And the GI50 [23]?
The GI50 was > 100 µM (inactive).

What about the GI50 [24] of the same molecule?
The GI50 was > 100 µM (inactive).

What about the GI50 [26] of the same molecule?
Its GI50 is > 100 µM (inactive).

What about the GI50 [27] of the same molecule?
Its GI50 is > 100 µM (inactive).

And the GI50 [28]?
The GI50 was > 100 µM (inactive).

And the GI50 [29]?
Its GI50 is > 100 µM (inactive).

And the GI50 [30]?
Its GI50 is > 100 µM (inactive).

And the GI50 [31]?
Its GI50 is > 100 µM (inactive).

And the GI50 [32]?
The GI50 was > 100 µM (inactive).

And the GI50 [33]?
The GI50 was > 100 µM (inactive).

What about the GI50 [34] of the same molecule?
Its GI50 is > 100 µM (inactive).

And the GI50 [35]?
Its GI50 is > 100 µM (inactive).

And the GI50 [36]?
Its GI50 is 1.96 µM (inactive).

What about the GI50 [37] of the same molecule?
The GI50 was > 100 µM (inactive).

What about the GI50 [38] of the same molecule?
The GI50 was > 100 µM (inactive).

And the GI50 [39]?
The GI50 was > 100 µM (inactive).

And the GI50 [40]?
Its GI50 is > 100 µM (inactive).

What about the GI50 [41] of the same molecule?
Its GI50 is > 100 µM (inactive).

And the GI50 [42]?
Its GI50 is > 100 µM (inactive).

And the GI50 [43]?
Its GI50 is 83.6 µM (inactive).

And the GI50 [44]?
Its GI50 is > 100 µM (inactive).

And the GI50 [45]?
The GI50 was > 100 µM (inactive).

What about the GI50 [46] of the same molecule?
The GI50 was > 100 µM (inactive).

And the GI50 [48]?
Its GI50 is > 100 µM (inactive).

What about the GI50 [50] of the same molecule?
Its GI50 is 80.4 µM (inactive).

And the GI50 [51]?
The GI50 was > 100 µM (inactive).

And the GI50 [52]?
Its GI50 is > 100 µM (inactive).

And the GI50 [53]?
Its GI50 is > 100 µM (inactive).

And the GI50 [54]?
Its GI50 is 59.3 µM (inactive).
